These results are taken from ChEMBL document CHEMBL1146814, “Amidine derived 1,3-diazabuta-1,3-dienes as potential antibacterial and antifungal agents” (2004).

Test [1] deals with Staphylococcus aureus. The experiment in a line: Antibacterial activity against Staphylococcus aureus MTCC 1430 measured through zone of inhibition; 16-20 mm. Type of test: functional.
Test [2] relates to Bacillus subtilis. The test is described as follows: Antibacterial activity against Bacillus subtilis MTCC 121 measured through zone of inhibition; 16-20 mm. Type of test: functional.
Test [3] relates to Candida albicans. The experiment in a line: Antifungal activity against Candida albicans MTCC 183 measured through zone of inhibition; 11-15 mm. Type of test: functional.
For test [4], the system named is Aspergillus niger. The test is described as follows: Antifungal activity against Aspergillus niger MTCC 404 measured through zone of inhibition; 11-15 mm. The test is classed as functional.
The subject of test [5] is Escherichia coli. The experiment in a line: Antibacterial activity against Escherichia coli MTCC 42 measured through zone of inhibition; 21-25 mm. The test is classed as functional.
Test [6] relates to Bacillus cereus. The test is described as follows: Antibacterial activity against Bacillus cereus MTCC 1272 measured through zone of inhibition; 11-15 mm. Type of test: functional.
Test [7] has as its system Pseudomonas aeruginosa. The test is described as follows: Antibacterial activity against Pseudomonas aeruginosa MTCC 1034. measured through zone of inhibition; 21-25 mm. The test is classed as functional.
In test [8] the test system is Staphylococcus aureus. The experiment in a line: Antibacterial activity against Staphylococcus aureus MTCC 1430 measured through zone of inhibition; 21-25 mm. Type of test: functional.
Test [9] concerns Bacillus cereus. The experiment in a line: Antibacterial activity against Bacillus cereus MTCC 1272 measured through zone of inhibition; 16-20 mm. Type of test: functional.
The test system of test [10] is Candida albicans. The test is described as follows: Antifungal activity against Candida albicans MTCC 183 measured through zone of inhibition; 16-20 mm. Type of test: functional.
Test [11] relates to Candida albicans. The experiment in a line: Antifungal activity against Candida albicans MTCC 183 measured through zone of inhibition; Inactive. Type of test: functional, organism-based.
Test [12] has as its system Staphylococcus aureus. The test is described as follows: Antibacterial activity against Staphylococcus aureus MTCC 1430 measured through zone of inhibition; 11-15 mm. The test is classed as functional.
The subject of test [13] is Bacillus subtilis. The test is described as follows: Antibacterial activity against Bacillus subtilis MTCC 121 measured through zone of inhibition; 21-25 mm. The test is classed as functional.
Test [14] has as its system Pseudomonas aeruginosa. The experiment in a line: Antibacterial activity against Pseudomonas aeruginosa MTCC 1034. measured through zone of inhibition; 16-20 mm. Type of test: functional.
The subject of test [15] is Candida albicans. The test is described as follows: Antifungal activity against Candida albicans MTCC 183 measured through zone of inhibition; inactive. Type of test: functional, organism-based.
Test [16] relates to Aspergillus niger. The experiment in a line: Antifungal activity against Aspergillus niger MTCC 404 measured through zone of inhibition; inactive. Type of test: functional, organism-based.
Test [17] deals with Staphylococcus aureus. The test is described as follows: Antibacterial activity against Staphylococcus aureus MTCC 1430 measured through zone of inhibition; Inactive. The test is classed as functional, organism-based.
For test [18], the system named is Escherichia coli. The test is described as follows: Antibacterial activity against Escherichia coli MTCC 42 measured through zone of inhibition; Inactive. Type of test: functional, organism-based.
Test [19] deals with Aspergillus niger. The experiment in a line: Antifungal activity against Aspergillus niger MTCC 404 measured through zone of inhibition; Inactive. The test is classed as functional, organism-based.
Test [20] concerns Pseudomonas aeruginosa. The test is described as follows: Antibacterial activity against Pseudomonas aeruginosa MTCC 1034. measured through zone of inhibition; Inactive. Type of test: functional, organism-based.
Test [21] deals with Bacillus subtilis. The test is described as follows: Antibacterial activity against Bacillus subtilis MTCC 121 measured through zone of inhibition; Inactive. The test is classed as functional, organism-based.
The subject of test [22] is Bacillus cereus. The test is described as follows: Antibacterial activity against Bacillus cereus MTCC 1272 measured through zone of inhibition; Inactive. Type of test: functional, organism-based.
Test [23] has as its system Bacillus cereus. The experiment in a line: Antibacterial activity against Bacillus cereus MTCC 1272 measured through zone of inhibition; 21-25 mm. Type of test: functional.

Structures are written as SMILES. Activity calls are given as the source filed them. The rule behind the calls is not given here.

As to `CS/C(=N\C(=N\c1ccc(Cl)cc1)c1ccccc1)N1CCCCC1`, the Zone of inhibition amounted to 16 mm in the test on Staphylococcus aureus [1]; 16 mm in the test with Bacillus subtilis [2]; 11 mm with Candida albicans [3]; 11 mm with Aspergillus niger [4]; 21 mm with Escherichia coli [5]; 11 mm in the test on Bacillus cereus [6]. Moreover, the Zone of inhibition in the test on Pseudomonas aeruginosa [7] turned out to be 21 mm.
On to `CCCCS/C(=N\C(=N\c1ccc(C)cc1)c1ccccc1)N1CCCCC1`, for which the Zone of inhibition amounted to 21 mm in the test on Staphylococcus aureus [8]; 16 mm with Bacillus subtilis [2]; 11 mm in the test on Aspergillus niger [4]; 21 mm in the test with Escherichia coli [5]; 16 mm in the test on Bacillus cereus [9]; 21 mm in the test on Pseudomonas aeruginosa [7]. The compound also registered a Zone of inhibition with Candida albicans [10] of 16 mm.
Regarding `CCS/C(=N\C(=N\c1ccc(C)cc1)c1ccccc1)N1CCCCC1`, in the test with Candida albicans [11], the Zone of inhibition result is “inactive”. The Zone of inhibition in the test with Staphylococcus aureus [12] was determined as 11 mm; in the test on Aspergillus niger [4], 11 mm; in the test with Bacillus subtilis [13], 21 mm; with Escherichia coli [5] it was 21 mm; in the test on Pseudomonas aeruginosa [14] it was 16 mm; with Bacillus cereus [9], 16 mm.
On to `CS/C(=N\C(=N\c1ccccc1)c1ccccc1)N1CCCCC1`, for which the Zone of inhibition in the test on Staphylococcus aureus [1] came out at 16 mm; in the test on Bacillus subtilis [2] it was 16 mm; with Escherichia coli [5], 25 mm; in the test with Pseudomonas aeruginosa [14] it was 16 mm; with Bacillus cereus [9], 16 mm. Further, the Zone of inhibition result in the test with Candida albicans [15] and in the test on Aspergillus niger [16] was “inactive” each time.
In the case of `C[S+](C)[O-]`, the Zone of inhibition entry in the test on Candida albicans [11], in the test with Staphylococcus aureus [17], with Escherichia coli [18], in the test with Aspergillus niger [19], in the test on Pseudomonas aeruginosa [20] and with Bacillus subtilis [21] was “inactive” in each case. Besides, the Zone of inhibition result in the test with Bacillus cereus [22] is “inactive”.
Turning to `CCS/C(=N\C(=N\c1ccccc1)c1ccccc1)N1CCCCC1`, the Zone of inhibition in the test with Staphylococcus aureus [8] came to 21 mm; in the test with Bacillus subtilis [2], 16 mm; with Candida albicans [3], 11 mm; with Escherichia coli [5], 21 mm; in the test on Bacillus cereus [23], 21 mm; in the test with Pseudomonas aeruginosa [14], 16 mm. Also, the Zone of inhibition entry in the test with Aspergillus niger [16] is “inactive”.
Consider `CS/C(=N\C(=N\c1ccc(C)cc1)c1ccccc1)N1CCCCC1`, for which the Zone of inhibition result in the test on Candida albicans [11] and in the test on Aspergillus niger [19] was “inactive” in each case. Further, the Zone of inhibition is 21 mm with Staphylococcus aureus [8]; 16 mm in the test on Bacillus subtilis [2]; 21 mm with Escherichia coli [5]; 16 mm with Pseudomonas aeruginosa [14]; 16 mm in the test with Bacillus cereus [9].
As for `O=C(O)c1cn(C2CC2)c2cc(N3CCNCC3)c(F)cc2c1=O` [CIPROFLOXACIN], the Zone of inhibition was determined as 21 mm in the test on Staphylococcus aureus [8]; 21 mm in the test on Bacillus subtilis [13]; 21 mm with Escherichia coli [5]; 16 mm with Pseudomonas aeruginosa [14]; 16 mm in the test with Bacillus cereus [9].
